Source: patent publication US6969583B2, “Method for detecting variant HBV” (Melbourne Health, priority 2000, dated 2005)
Where “and” joins values, the source holds several entries; their conditions need not be identical. Identical values can stand only once. Like-named read-outs stand apart in the source and are kept apart here.

Tests used:
Type in all cases: cell-based, Hepatitis B virus
[1] = system: L526M HBV baculovirus; assay: Antiviral testing with L526M HBV baculovirus in HepG2 cells (Example 15); conditions: for inhibition at 1 µM / IC50: Hepatitis B virus, 526 (L526M) HBV; for inhibition at 1 µM: HepG2, ds HBV DNA band density vs untreated controls, estimated from fitted curve, negative = stimulation, read-out: Inhibition at 1 μM; for IC50: ds HBV DNA bands, HepG2 cells, read-out: IC50
Procedure: (§1) HepG2 cells were seeded at approximately 20-40% confluency and then were grown for 16-24 hours before infection. On the day of infection, triplicate plates of cells were trypsinized, and viable cell number was determined with a hemocytometer using Trypan blue exclusion. Average cell counts were calculated and used to determine the volume of high-titer viral stock necessary to infect cells at the indicated moi. HepG2 cells were washed one time with serum-free MEM to remove traces of serum. Baculovirus was diluted into MEM without serum to achieve the appropriate moi using volumes of 1.0, 0.5, and 0.25 ml to infect 100-mm, 60 mm, and 35-mm dishes, respectively. Baculovirus was adsorbed to HepG2 cells for one hour at 37° C. with gentle rocking every 15 minutes to ensure that the inoculum was evenly distributed. The inoculum was then aspirated and HepG2 cells were washed two times with phosphate-buffered saline and refed MEM-FBS with or without various concentrations of agents.
(§2) HBV core particles were isolated from the cytoplasmic fraction of HepG2 cells lysed in 0.5% w/v NP-40. Cytoplasmic extracts were adjusted to 10 mmol/l McC12 and unprotected DNA was removed by an incubation to […] for 1.5 hours at 37° C. Following sequential phenol and chloroform extractions, nucleic acids were recovered by ethanol precipitation. Nucleic acids were resuspended in 50 μl/l TE (10 mmol/l Tris, 1 mmol/l ethylenedianinetetraacetic acid), normalized by OD260, and digested with 100 μg/ml RNase (Boehringer Mannheim, Indianapolis, Ind.) for one hour at 37° C. before analysis by electrophoresis and Southern blotting. A BioRad GS-670 imaging densitometer and the Molecular Analyst software (BioRad, Hecules Calif.) was used to analyze suitable exposures of Southern blots. Densitometry data was fitted to logistic dose response curves using the TableCurve2D software package from Jandel Scientific. Logistic dose response equations were used to calculate IC50 and IC90 values and co-efficients of variation.
(§3) 3TC and PCV were a gift from Klaus Esser, SmithKline Beecham, Collegeville, Pa. PMEA was obtained from Gilead (Foster City, Calif.). 3TC was resuspended in sterile water, aliquoted, and frozen at −20° C. to avoid repeated freezing and thawing of the drug. PMEA was resuspended in sterile water after the pH was adjusted to 7.0 with NaOH. PCV was resuspended in dimethyl sulphoxide. Medium containing 3TC was prepared daily as needed using fresh aliquots of 3TC. In experiments in which 3TC treatment was initiated after viral infection, HepG2 cells were exposed to the indicated concentration of 3TC immediately after infection with HBV baculovirus. In experiments utilizing pretreatment with 3TC, cells were fed medium containing 3TC 16 hours prior to HBV baculovirus infection, HBV baculovirus infection was also carried out in medium containing 3TC, and cells were refed fresh medium containing 3TC immediately after completion of the infection and washing procedures. Treatment with PMEA and PCV were conducted in a similar manner.

[2] = system: wild-type HBV baculovirus; assay: Antiviral testing with wild-type HBV baculovirus in HepG2 cells (Example 15, Southern blot densitometry); conditions: for inhibition at 1 µM / IC50: Hepatitis B virus, wt HBV; for inhibition at 1 µM: HepG2, ds HBV DNA band density vs untreated controls, estimated from fitted curve, negative = stimulation of replication; for IC50: ds HBV DNA bands, HepG2 cells
Procedure: as §1, §2, §3
The dose effect of 3TC and PMEA, on wild-type HBV is shown graphically in FIG. 6 (A, B,) and a Southern Blot of intracellular HBV replicative intermediates and extracellular virus produced by HepG2 cells transduced with wild-type HBV-baculovirus in the presence of increasing concentrations of PCV is shown in FIG. 6C and the IC50 for each antiviral agent is shown in Table 2.

[3] = system: L526M/M550V HBV baculovirus; assay: Antiviral testing with L526M/M550V HBV baculovirus in HepG2 cells (Example 15); conditions: for inhibition at 1 µM / IC50: Hepatitis B virus, dual (L526M/M550V) HBV; for inhibition at 1 µM: HepG2, ds HBV DNA band density vs untreated controls, estimated from fitted curve, negative = stimulation; for IC50: ds HBV DNA bands, HepG2 cells
Procedure: as §1, §2, §3

[4] = system: M550I HBV baculovirus; assay: Antiviral testing with M550I HBV baculovirus in HepG2 cells (Example 15); conditions: for inhibition at 1 µM / IC50: Hepatitis B virus, 550 (M550I) HBV; for inhibition at 1 µM: HepG2, ds HBV DNA band density vs untreated controls, estimated from fitted curve, negative = stimulation; for IC50: ds HBV DNA bands, HepG2 cells, read-out: IC50
Procedure: as §1, §2, §3

[5] = system: precore (G1896A) recombinant HBV-baculovirus; assay: Antiviral testing of the precore mutant (G1896A) HBV baculovirus in HepG2 cells (Example 17)
Procedure: as §1, §2
(§4) Conditioned medium was collected from HepG2 cells and subjected to centrifugation at 6,000 g for five minutes to remove cellular debris. HBV particles were precipitated with 10% w/v PEG 8000 and were concentrated by centrifugation at 12,000 ×g. Viral pellets were resuspended us 1 ml of MEM-FBS and divided into two aliquots. One set of aliquots was treated with 750 μg/ml Pronase for one hour and then with […] DNase 1 for one hour. Both sets of aliquots were then digested with Proteinase K, and extracted with phenol and chloroform. DNA was precipitated with 0.1 volume of 3 mol/l sodium acetate and 1 volume of isopropanol. Ten micrograms of transfer RNA was added as a carrier during precipitation. Pellets were resuspended in 25 μl of TE and digested with 0.5 mg/ml RNase for one hour. DNA was then analyzed by electrophoresis and Southern blotting.
as §3

[6] = system: wild-type (WT) recombinant HBV-baculovirus; assay: Antiviral testing, wild-type (1.3x genomic length) recombinant HBV-baculovirus in HepG2 cells (Example 17)
Procedure: as §1, §2, §4, §3

[7] = system: M550I recombinant HBV-baculovirus; assay: Antiviral testing, M550I recombinant HBV-baculovirus in HepG2 cells (Example 17); conditions: Hepatitis B virus, HepG2, intracellular single-stranded HBV DNA, NDR = no dose response, read-out: IC50 (μM), IC SS
Procedure: as §1
(§5) HBV core particles were isolated from the cytoplasmic fraction of HepG2 cells lysed in 0.5% w/v NP-40. […]
(§6) Conditioned medium was collected from HepG2 cells and subjected to centrifugation at 6,000 g for five minutes to remove cellular debris. […] DNA was then analyzed by electrophoresis and Southern blotting. […]

[8] = system: L526M/M550V recombinant HBV-baculovirus; assay: Antiviral testing, L526M/M550V recombinant HBV-baculovirus in HepG2 cells (Example 17); conditions: Hepatitis B virus, HepG2, intracellular single-stranded HBV DNA, NDR = no dose response, read-out: IC50 (μM), IC SS
Procedure: as §1, §5, §6

[9] = system: Precore/L526M/M550V recombinant HBV-baculovirus; assay: Antiviral testing, Precore/L526M/M550V recombinant HBV-baculovirus in HepG2 cells (Example 17); conditions: Hepatitis B virus, NDR = no dose response
Procedure: as §1, §2
as §4, with “Pellets were resuspended in 25 μl of TE and digested with 0.5 mg/ml RNase for one hour.” left out, “blotting. […]” for “blotting.”

[10] = system: Precore/M550I recombinant HBV-baculovirus; assay: Antiviral testing, Precore/M550I recombinant HBV-baculovirus in HepG2 cells (Example 17); conditions: Hepatitis B virus, NDR = no dose response
Procedure: as §1, §2
as §4, with “Pellets were resuspended in 25 μl of TE and digested with 0.5 mg/ml RNase for one hour.” left out, “blotting. […]” for “blotting.”

[11] = Hepatitis B virus, HepG2, Precore (G1896A), extracellular relaxed circular HBV DNA, individual experiments behind the average, read-out: IC50, single experiments, EC RC
[12] = Precore (G1896A), extracellular relaxed circular HBV DNA, individual experiments behind the average, read-out: IC50, single experiments, EC RC
[13] = Precore (G1896A), intracellular single-stranded HBV DNA, individual experiments behind the average, read-out: IC50, single experiments, IC SS
[14] = Hepatitis B virus, HepG2, WT, intracellular single-stranded HBV DNA, individual experiments behind the average, read-out: IC50, single experiments, IC SS
[15] = WT, extracellular relaxed circular HBV DNA, individual experiments behind the average, read-out: IC50, single experiments, EC RC
[16] = WT, intracellular single-stranded HBV DNA, individual experiments behind the average, read-out: IC50, single experiments, IC SS
[17] = HepG2, extracellular relaxed circular HBV DNA, read-out: IC50 (μM), EC RC
[18] = HepG2, intracellular single-stranded HBV DNA, read-out: IC50 (μM), IC SS

Nc1ccn([C@@H]2CS[C@H](CO)O2)c(=O)n1 [Lamivudine, (−)-b-L-2′,3′-dideoxy-3′-thiacytidine]
inhibition at 1 µM [1]: 85.8%
IC50 [1]: 30 nM
shift in the IC50 compared to the wild-type ([1]; L526M vs wild-type, FIG. 7A): > 0.5 log
Resistance Factor [1]: 3
inhibition at 1 µM [2]: 99.6%
IC50 [2]: 9 nM
Resistance Factor [2]: 1
inhibition at 1 µM [3]: -15%
IC50 [3]: 86200 nM
Resistance Factor [3]: 9578
inhibition at 1 µM [4]: 26.7%
IC50 [4]: 3800 nM
Resistance Factor [4]: 422
IC50 [5, 11]: 0.012 µM
IC50 ([5]; Hepatitis B virus, HepG2, read-out: IC50 (μM), EC RC, Precore (G1896A), extracellular relaxed circular HBV DNA, averages where footnoted): 0.011 µM
IC50 ([5]; Hepatitis B virus, HepG2, read-out: IC50 (μM), IC SS, Precore (G1896A), intracellular single-stranded HBV DNA, averages where footnoted): 0.0207 µM
IC50 [5, 12]: 0.01 µM
IC50 [5, 13]: 14 nM (2×) and 32 nM
IC50 [6, 14]: 0.067 µM
IC50 ([6]; Hepatitis B virus, HepG2, read-out: IC50 (μM), EC RC, WT, extracellular relaxed circular HBV DNA, averages where footnoted): 0.018 µM
IC50 ([6]; Hepatitis B virus, HepG2, read-out: IC50 (μM), IC SS, WT, intracellular single-stranded HBV DNA, averages where footnoted): 0.0697 µM
IC50 [6, 15]: 0.022 µM and 0.0293 µM and 0.0095 µM
IC50 [6, 16]: 0.085 µM and 0.0572 µM

Nc1ncnc2c1ncn2CCOCP(=O)(O)O [Adefovir, 9-(2-phosphonylmethoxyethyl)adenine]
change in sensitivity of L526M compared to wild-type ([1]; FIG. 7A-7C, result in words): No significant change
inhibition at 1 µM [1]: 86.2%
IC50 [1]: 90 nM
Resistance Factor [1]: 1
IC50 [7]: 0.94 µM
inhibition at 1 µM [2]: 91.6%
IC50 [2]: 80 nM
Resistance Factor [2]: 1
change in sensitivity of L526M/M550V ([3]; FIG. 8A-8C, result in words): no substantial change
inhibition at 1 µM [3]: 77%
IC50 [3]: 160 nM
Resistance Factor [3]: 2
inhibition at 1 µM [4]: 70%
IC50 [4]: 310 nM
Resistance Factor [4]: 4
IC50 [8]: 0.93 µM
IC50 [9, 17]: 1 µM
IC50 [9, 18]: 0.47 µM
IC50 [10, 17]: 0.09 µM
IC50 [10, 18]: 0.28 µM
IC50 ([5]; Hepatitis B virus, HepG2, Precore (G1896A), extracellular relaxed circular HBV DNA, averages where footnoted, read-out: IC50 (μM), EC RC): 0.025 µM
IC50 [5, 11]: 0.02 µM
IC50 ([5]; Hepatitis B virus, HepG2, Precore (G1896A), intracellular single-stranded HBV DNA, averages where footnoted, read-out: IC50 (μM), IC SS): 0.195 µM
IC50 ([5]; Hepatitis B virus, HepG2, Precore (G1896A), intracellular single-stranded HBV DNA, individual experiments behind the average, read-out: IC50, single experiments, IC SS): 0.2 µM
IC50 [5, 12]: 0.03 µM
IC50 [5, 13]: 0.19 µM
sensitivity of G1896A HBV compared with wild type HBV ([5]; result in words): at least as sensitive
IC50 ([6]; Hepatitis B virus, HepG2, WT, extracellular relaxed circular HBV DNA, averages where footnoted, read-out: IC50 (μM), EC RC): 0.0535 µM
IC50 ([6]; Hepatitis B virus, HepG2, WT, extracellular relaxed circular HBV DNA, individual experiments behind the average, read-out: IC50, single experiments, EC RC): 0.06 µM
IC50 ([6]; Hepatitis B virus, HepG2, WT, intracellular single-stranded HBV DNA, averages where footnoted, read-out: IC50 (μM), IC SS): 0.235 µM
IC50 [6, 14]: 0.25 µM
IC50 [6, 15]: 0.047 µM
IC50 [6, 16]: 0.22 µM
